Patent US5744499A, “Apoptosis-modulating factors influencing the intracellular concentration of methional/malondialdehyde” (Centre International de Recherches Dermatologiques Galderma, priority 1994, dated 1998)

Assays:
[1] = system: BAF3-bO cells; assay: Induction of DNA fragmentation by methional in BAF3-bO cells ([3H]-thymidine); assay type: cell-based, mouse; conditions: 400 μM methional, 8 hours; control 7%
Procedure: (§1) The cells used were a BAF3 lymphocytic cell line, such as that described above. The BAF3-bcl2 cells corresponded to BAF3 cells transfected by the bcl2 gene. The BAF3-bO cells corresponded to BAF3 cells not transfected by the bcl2 gene. As indicated above, the BAF3-bO cells underwent apoptosis (more than 80% of the cells) in the absence of IL3 for 16 hours. On the other hand, the BAF3-bcl2 cells, which were transfected by the bcl2 gene, evidenced no sign of apoptosis in the absence of IL3. Accordingly, they constituted a good model for determining the apoptosis step blocked in these cells, and its potential correlation with the inhibition of malondialdehyde synthesis.
(§2) The BAF3-bO or BAF3-bcl2 cells were marked by adaptation of the method described in S. Wright et al, J. of Cell. Biochem., 48, 344-355 (1992), by incubating 2.5×10^5 cells/ml with 0.5 μCi [3H]-thymidine for 40 hours at 37° C. After two washings in a culture medium, 2.5×10^6 cells were cultured in the presence of methional. […] The aliquots of the culture medium (1 ml), of the supernatant (0.3 ml), and of the solubilized sediment (0.1 ml) were measured by quantitative analysis in the scintillation counter. The percentage of DNA fragments was calculated in the following manner: […]

[2] = system: HeLa cells; assay: Effect of metabolites on the growth of HeLa cells; assay type: cell-based; conditions: Homo sapiens, 72 h, three days at 37° C., estimated by protein content, average of 3 or 4 experiments, read-out: IC50 (concentration required to inhibit cell growth by 50%)
Procedure: HeLa cells (0.5×10^6 per Petri dish) were cultured in 3 ml of a minimum essential Eagle medium containing 10% by weight dialyzed fetal calf serum. After four hours, methional (10 μM-1 mM), methionol (10 μM-20 mM), methylthiopropionic acid (MTPA) (1 μM-20 mM), L-methionine (1 μM-20 mM) or 4-methylthio-2-oxobutanoic acid (MTOB) (1 μM-20 mM) were added to each of the three dishes. After three days at 37° C., the cells were washed twice in a buffered, phosphatized saline medium having a pH of 7.5 (PBS medium) and collected in the same type of buffer.
Cell growth was assessed by measuring protein content (see technique described in O. H. Lowry, N. J. Rosebrouh, A. L. Farr, and R. J. Randall, J. Biol. Chem., 193, 265-275 (1951)) or the DNA content in the lysate using a bisbenzimide trihydrochloride solution (Hoechst 33258) (see W. D. Jarvis, R. N. Kolesnick, F. A. Fornari, R. S. Traylor, D. A. Gewirtz, and S. Grant, Proc. Natl. Acad. Sci. USA, 91, 73-77 (1994)), or by determining […] using 3-(4,5-dimethylthiazol-2-yl)-2,5-diphenyl-tetrazolium bromide (MTT) (see T. Mosmann, J. of Immunology, Methods, 65, 55-63 (1983)).
Each value of is the average of 3 or 4 experiments as estimated by protein content.
IC50 represents the concentration of compound required to inhibit cell growth by 50%.

[3] = system: BAF3-bcl2 cells; assay: Induction of DNA fragmentation by methional in BAF3-bcl2 cells ([3H]-thymidine); assay type: cell-based, mouse
Procedure: as §1, §2

[4] = system: BAF3 cells; assay: DNA fragmentation in BAF3 cells, spectrofluorometric analysis (Hoechst 33258); assay type: cell-based, mouse
Procedure: 3×10^6 BAF3 cells were grown in 6 ml of a culture medium containing IL3 in Petri dishes in the presence of different concentrations (200-800 μM) of methional or […], a substrate of the aldehyde dehydogenase. After 8 hours of contact, the cells were washed three times in a phosphatized buffered saline medium, pH=7.5 (PBS medium). These cells were lysed in 2 ml 0.1% Triton X-100, 20 mM EDTA (ethylenediaminetetraacetic acid), 5 mM Tris pH 8, and then centrifuged at 30,000 g at 4° C. for 30 minutes. The supernatants were decanted and analyzed as indicated below.
For purposes of comparison, the same cultures were grown in a medium, either with IL3 (+IL3) or without IL3 (-IL3).
Spectrofluorometric analysis was carried out to measure the […] of DNA fragments obtained (<3 kilobases). 1 ml of a solution of bisbenzimide trihydrochloride (Hoechst 33258) (1 μg/ml) in 3 mM sodium chloride, 1 mMd4EDTA, 10 mM Tris, pH=8, was added to 2 ml supernatant. The solutions obtained were analyzed by fluorometry (excitation λ=365 nm, emission λ=460 nm). The quantities of DNA were calculated in relation to highly-purified DNA (0.1 to 1 μh in 2 ml lysis buffer) treated as indicated above and expressed in 10^-9 g DNA collected from 3×10^6 cells.

[5] = system: BAF3 cells; assay: DNA fragmentation in BAF3 cells, agarose gel electrophoresis; assay type: cell-based, mouse; conditions: 200-800 μM, medium with IL3, 8 hours
Procedure: K. L. Collins, J. Marvel, […] A. Lopez-[…]. Exp. Med., 176, 1043-1051 (1992)]. […] After 8 hours of contact, the cells were washed three times in a phosphatized buffered saline medium, pH=7.5 (PBS medium). […] The supernatants were decanted and analyzed as indicated below. For purposes of comparison, the same cultures were grown in a medium, either with IL3 (+IL3) or without IL3 (-IL3). The DNA fragments obtained were analyzed qualitatively using the method described, in particular, in W. D. Jarvis, […], and S. Grant, Proc. Natl. Acad. Sci. USA, 91, 73-77 (1994). The supernatants were treated with ribonuclease A (20 μg/ml) for 1 hour at 37° C., and with the proteinase R (100 μg/ml). The DNA was purified using phenol extraction and precipitated with ethanol. […] After electrophoresis (60V, 3 hours), the gels were stained with ethydium bromide.

[6] = system: murine B16 Fl melanoma cells; assay: Survival of mice grafted with B16 melanoma cells; assay type: in vivo, mouse; conditions: Table 5; three mice; daily injection for 15 days; BCNU 0.1 mg/kg, Compound A 25 mg/kg, Methional 25 mg/kg; control 20.5
Procedure: At t=0 day, 10^5 murine B16 Fl melanoma cells were injected into B6D2Fl mice (from the IFFA CREDO Company, France).
Table 5 reports the results corresponding to averages of the results obtained on three treated mice.
For the regimens containing multiple compounds, the quantities of each of the compounds used were identical to those of the regimens using the compounds by themselves.
Survival time was recorded beginning at t=0 day, as indicated above.
BCNU corresponds to N,N-Bis(2-chloroethyl)-N-nitrosourea. Compound A corresponds to the compound having formula (9), wherein X is a --OH radical.
Between the two regimens, the latter (to which methional was added) accounted for one-third of the mice surviving more than 60 days. The "average survival time" is the mean of the number of mice dying over the course of the experiment, i.e., within 60 days.
The procedure of the previous example was repeated, but the regimens and numbers of mice treated varied.
With respect to this latter regiment, the quantities corresponded to the quantities of compounds used alone. The percentage of long-term survivors corresponded to the percentage of mice which survived beyond 60 days.

## CSCCC=O [methional, 3-methylthiopropanal]
[1]
  percentage of DNA fragments (maximum): 26%
[2]
  IC50: 100 µM
[3]; 400 μM methional, 8 hours, control 3%
  percentage of DNA fragments (maximum): 7%
[3]; methional 50-400 μM
  elimination of the bcl2 inhibition of apoptosis: did not permit eliminating the inhibition of apoptosis resulting from the bcl2 gene
[4]; +IL3, 8 hours contact, methional 200-800 μM (concentration not given)
  quantity of DNA fragments (<3 kilobases): 127 10^-9 g DNA/3 × 10^6 cells
[4]; cells treated with IL3 and methional
  increase in amount of DNA fragments compared with cells without IL3: comparable to the quantity found when the cells were placed in a medium not containing IL3
[5]
  triggering of apoptosis (ladder of DNA fragments of 180 to 200 base pairs on gel): apoptosis was triggered
[6]
  Average Survival Time: 27 days
